Data as given in patent US11066447B2, “Aureobasidium derivatives and methods of synthesis” (AureoGen Biosciences, Inc., priority 2016, dated 2021).
In brackets after ≈: the same amount, converted by molar mass. Several values for one entry are separate records, joined by “and”; a condition that tells them apart may be missing. Equal entries are not always repeated. Where two headings read alike, the source gives them in different places. Numbered stars: 1 amine (or outer) side, 2 acyl side, 3 side chain; on linkers, the order of the positions; unused ones are H or OH. Square brackets hold non-standard residues; d marks the D form. Peptide text beside a SMILES is read from it. ξ: configuration not given here. X4 = CN1CCN(c2cc(-c3cccc(C[C@@H](C(=O)[*:2])N(C)[*:1])c3)ccn2)CC1; X30 = CN([C@@H](Cc1cccc(-c2ccc(Cl)c(Cl)c2)c1)C(=O)[*:2])[*:1]; X5 = CN([C@@H](Cc1cccc(-c2ccc3cnccc3c2)c1)C(=O)[*:2])[*:1]; Hmp(2R,3S) = CC[C@H](C)[C@@H](O)C(=O)O; NMeVal(β-OH) = CN[C@H](C(=O)O)C(C)(C)O; X6 = CCC(C)[C@@H](O[*:1])C(=O)[*:2]; Ile(3ξ) = CCC(C)[C@H](N)C(=O)O; NMeV = CN[C@H](C(=O)O)C(C)C; ξL = CC(C)CC(N)C(=O)O

How the values were obtained:
[1] = tested on: A. fumigatus MMX 6782 ATCC 13073; experiment: MIC/MEC assay (CLSI microdilution); type: cell-based; conditions: Aspergillus fumigatus, ATCC13073, 48 h; for MIC: RPMI plus 0.002% Tween-80, read-out: MIC
Experimental: (§1) Aureobasidin and test compounds (i.e., AbA derivatives of the present invention) were received from Kalexsyn, Inc. (Kalamazoo, Mich.) as powder and were stored at 4° C. until the day of assay. […] amphotericin was obtained from Sigma Aldrich and stored under like conditions. […] Ethanol (95%) was used as a solvent and diluent for all AbA compounds. Amphotericin B was tested from 0.06-64 μg/mL. Amphotericin B (Sigma Aldrich; St. Louis, Mo.; Cat No. A9528-100MG, Lot No. 120M4087) was dissolved and diluted with dimethylsulfoxide (DMSO; Sigma Aldrich; St. Louis, Mo.; Cat No. 472301 Lot No. SHBD2072V).
(§2) The solvents were added to the test agents and the stock solutions stood for approximately 1 hr at room temperature prior to use to auto sterilize. Stock solutions were prepared at 40× the desired top concentration in the test plate.
(§3) All of the test isolates were originally received from either the American Type Culture Collection (ATCC), clinical labs, or directly from Aureogen Biosciences. Organisms stored by Micromyx were cultured on agar medium appropriate to each organism. Colonies were picked by swab from the isolation plates and put into suspension in appropriate broth containing cryoprotectant. The suspensions were aliquoted into cryogenic vials and maintained at −80° C.
(§4) Prior to testing, Candida isolates were streaked from the frozen vials on Sabouraud dextrose agar. The yeast isolates were incubated for 48 hours at 35° C. before use. The fungal isolates were obtained from enumerated fungal stocks previously prepared at Micromyx and stored in phosphate buffered saline at 4° C.
(§5) Test Media. The medium employed for the MIC assay was RPMI-1640 medium from HyClone Laboratories (Logan, Utah; Lot No. AYB60287A). The medium was prepared according to Clinical and Laboratory Standards Institute (CLSI) guidelines (1, 2), and modified to include 0.002% Tween-80. Candida parapsilosis ATCC 22019 (MMX 2323) and Aspergillus fumigatus ATCC MYA-3626 (MMX 5280) were also tested without Tween-80 to provide data for the quality control of amphotericin B in accordance with CLSI (3) and to assess the effect of Tween-80 on the activity of the test agents.
(§6) Test Procedure. The MIC assay method followed the procedure described by CLSI (1, 2) and employed automated liquid handlers to conduct serial dilutions and liquid transfers. Automated liquid handlers included the Multidrop 384 (Labsystems, Helsinki, Finland), Biomek 2000 and Biomek FX (Beckman Coulter, Fullerton Calif.). The wells in columns 2-12 in standard 96-well microdilution plates (Costar 3795) were filled with 150 μl of the appropriate diluent (95% EtOH for investigational compounds, 100% DMSO for amphotericin B). These assay plates would become the ‘mother plates’ from which the assay ‘daughter plates’ would be prepared. The drugs (300 μL at 40× the desired top concentration in the test plates) were dispensed into the appropriate well in Column 1 of the mother plates. The Biomek 2000 was used to make two-fold serial dilutions through Column 11 in the “mother plate”. The wells of Column 12 contained no drug and served as the organism growth control wells.
(§7) The daughter plates were loaded with 185 μL per well on the Multidrop 384 with RPMI plus 0.002% Tween-80 or RPMI containing no Tween-80 for the testing of the two QC isolates. The daughter plates were prepared on the Biomek FX instrument which transferred 5 μL of drug solution from each well of a mother plate to each corresponding well of each daughter plate in a single step.
(§8) A standardized inoculum of each organism was prepared per CLSI methods (1, 2). For the Candida isolates, colonies were picked from the streak plate and a suspension was prepared in RPMI to equal a 0.5 McFarland standard. This suspension was diluted 1:100 in RPMI resulting in a final concentration of approximately 0.5-2.5×10^3 CFU/mL. […]

[2] = tested on: A. fumigatus MMX 6781 ATCC MYA-4609; experiment: MIC/MEC assay (CLSI microdilution); type: cell-based; conditions: Aspergillus fumigatus; for MIC: 48 h, RPMI plus 0.002% Tween-80, read-out: MIC; for minimal effective concentration: RPMI plus 0.002% Tween-80, 48 hr
Experimental: as §1, §2, §3, §4, §5, §6, §7, §8

A. fumigatus MMX 5944 = experiment: MIC/MEC assay (CLSI microdilution); type: cell-based; conditions: for minimal effective concentration / MIC: Aspergillus fumigatus, MMX5944, 48 h; for MIC: RPMI plus 0.002% Tween-80, read-out: MIC
Experimental: as §1, §2, §3, §4, §5, §6, §7, §8

A. flavus MMX 5948 = experiment: MIC/MEC assay (CLSI microdilution); type: cell-based
Experimental: as §1, §2, §3, §4, §5, §6, §7, §8

[3] = tested on: A. niger MMX 0624 ATCC 16888; experiment: MIC/MEC assay (CLSI microdilution); type: cell-based; conditions: Aspergillus niger, ATCC16888, 48 h
Experimental: as §1, §2, §3, §4, §5, §6, §7, §8

[4] = tested on: C. albicans MMX 2000 ATCC 10231; experiment: MIC assay (CLSI microdilution); type: cell-based; conditions: Candida albicans, ATCC10231, RPMI plus 0.002% Tween-80; read-out: MIC
Experimental: as §1, §2, §3, §4, §5, §6, §7, §8

[5] = tested on: C. neoformans MMX 0634 ATCC 90112; experiment: MIC assay (CLSI microdilution); type: cell-based; conditions: Cryptococcus neoformans, ATCC90112, RPMI plus 0.002% Tween-80; read-out: MIC
Experimental: as §1, §2, §3, §4, §5, §6, §7, §8

[6] = tested on: C. parapsilosis MMX 2323 ATCC 22019; experiment: MIC assay (CLSI microdilution); type: cell-based, Candida parapsilosis
Experimental: as §1, §2, §3, §4, §5, §6, §7, §8

[7] = tested on: A. fumigatus MMX 5280 ATCC MYA-3626; experiment: MIC/MEC assay (CLSI microdilution); type: cell-based, Aspergillus fumigatus
Experimental: as §1, §2, §3, §4, §5, §6, §7, §8

[8] = tested on: A. fumigatus from Aureogen; experiment: MIC/MEC assay (CLSI microdilution); type: cell-based
Experimental: as §1, §2, §3, §4, §5, §6, §7, §8

[9] = RPMI plus 0.002% Tween-80, read-out: MEC
[10] = Aspergillus flavus, MMX5948, 48 h, RPMI plus 0.002% Tween-80
[11] = Aspergillus flavus, MMX5948, 48 h, RPMI plus 0.002% Tween-80, read-out: MIC
[12] = RPMI plus 0.002% Tween-80, read-out: MIC
[13] = ATCC22019, RPMI plus 0.002% Tween-80, read-out: MIC
[14] = ATCC22019, Without Tween-80, read-out: MIC
[15] = Aspergillus fumigatus, 48 h, RPMI plus 0.002% Tween-80, read-out: MEC
[16] = Aspergillus fumigatus, 48 h, RPMI plus 0.002% Tween-80, read-out: MIC
[17] = Aspergillus fumigatus, 48 h, Without Tween-80, read-out: MIC
[18] = read-out: MEC, RPMI plus 0.002% Tween-80
[19] = RPMI plus 0.002% Tween-80, 48 hr

CC[C@H](C)[C@@H]1NC(=O)[C@@H]2CCCN2C(=O)[C@H](Cc2cccc(-c3ccc(Cl)c(Cl)c3)c2)N(C)C(=O)[C@H](Cc2ccccc2)NC(=O)[C@H](C(C)C)N(C)C(=O)[C@@H]([C@@H](C)CC)OC(=O)[C@H](C(C)(C)O)N(C)C(=O)[C@H](CC(C)C)NC(=O)[C@H](C(C)C)N(C)C1=O [Compound 2] (cyclo(F[X30]PI[NMeV]L[NMeVal(β-OH)][Hmp(2R,3S)][NMeV]))
minimal effective concentration [1, 9]: 0.25 µg/mL | MIC [1]: > 64 µg/mL | MIC [2]: > 64 µg/mL | minimal effective concentration [2]: 0.5 µg/mL | minimal effective concentration (A. fumigatus MMX 5944; RPMI plus 0.002% Tween-80): 0.5 µg/mL | MIC (A. fumigatus MMX 5944): > 64 µg/mL | minimal effective concentration (A. flavus MMX 5948; [10]): 0.5 µg/mL | MIC (A. flavus MMX 5948; [11]): 1 µg/mL | minimal effective concentration [3, 9]: 0.5 µg/mL | MIC [3, 12]: 0.5 µg/mL | MIC [4]: 0.12 µg/mL | MIC [5]: 0.12 µg/mL | MIC [6, 13]: 0.5 µg/mL | MIC [6, 14]: 2 µg/mL (≈ 1.6 µM) | minimal effective concentration [7, 15]: 0.5 µg/mL | MIC [7, 16]: > 64 µg/mL | minimal effective concentration ([7]; Aspergillus fumigatus, 48 h, Without Tween-80, read-out: MEC): 8 µg/mL | MIC [7, 17]: > 64 µg/mL

CCC(C)[C@@H]1NC(=O)[C@@H]2CCCN2C(=O)[C@H](Cc2cccc(-c3ccc4cnccc4c3)c2)N(C)C(=O)[C@H](Cc2ccccc2)NC(=O)[C@H](C(C)C)N(C)C(=O)[C@@H](C(C)CC)OC(=O)[C@H](C(C)(C)O)N(C)C(=O)C(CC(C)C)NC(=O)[C@H](C(C)C)N(C)C1=O (stereo partly drawn) [Compound 6] (cyclo(F[X5]P[Ile(3ξ)][NMeV][ξL][NMeVal(β-OH)][X6][NMeV]))
minimal effective concentration [1, 18]: 0.25 µg/mL | MEC (A. fumigatus MMX 5944; [19]): 0.5 µg/mL | MIC (A. flavus MMX 5948; [10]): 0.25 µg/mL | MIC ([3]; RPMI plus 0.002% Tween-80): 0.12 µg/mL | minimal effective concentration [3, 18]: 0.12 µg/mL | MIC ([6]; ATCC22019, RPMI plus 0.002% Tween-80): 0.12 µg/mL | MIC ([6]; ATCC22019, Without Tween-80): 1 µg/mL (≈ 0.814 µM) | minimal effective concentration ([7]; Aspergillus fumigatus, 48 h, read-out: MEC, RPMI plus 0.002% Tween-80): 1 µg/mL | minimal effective concentration ([7]; Aspergillus fumigatus, 48 h, read-out: MEC, Without Tween-80): 2 µg/mL | MIC ([7]; Without Tween-80, 48 hr): > 64 µg/mL

CC[C@H](C)[C@@H]1NC(=O)[C@@H]2CCCN2C(=O)[C@H](Cc2cccc(-c3ccnc(N4CCN(C)CC4)c3)c2)N(C)C(=O)[C@H](Cc2ccccc2)NC(=O)[C@H](C(C)C)N(C)C(=O)[C@@H]([C@@H](C)CC)OC(=O)[C@H](C(C)(C)O)N(C)C(=O)[C@H](CC(C)C)NC(=O)[C@H](C(C)C)N(C)C1=O [Compound 15] (cyclo(F[X4]PI[NMeV]L[NMeVal(β-OH)][Hmp(2R,3S)][NMeV]))
minimal effective concentration ([8]; Aspergillus fumigatus, 48 h, RPMI plus 0.002% Tween-80): 0.06 µg/mL | MIC [8, 16]: 0.25 µg/mL | MIC [8, 19]: 0.25 µg/mL | MIC [1]: 0.5 µg/mL | MIC [2]: 0.25 µg/mL | minimal effective concentration [2]: 0.12 µg/mL | minimal effective concentration (A. fumigatus MMX 5944; RPMI plus 0.002% Tween-80): 0.06 µg/mL | MIC (A. fumigatus MMX 5944): 0.5 µg/mL | MIC (A. flavus MMX 5948; [11]): 0.25 µg/mL | MIC (A. flavus MMX 5948; [19]): 0.25 µg/mL | MIC [3, 12]: 0.03 µg/mL | MIC [5]: 0.06 µg/mL | MIC [6, 13]: 0.03 µg/mL | MIC [6, 14]: 0.5 µg/mL (≈ 0.392 µM) | MIC ([6]; Without Tween-80): 0.5 µg/mL (≈ 0.392 µM) | minimal effective concentration [7, 15]: 0.12 µg/mL | MIC [7, 16]: 0.25 µg/mL | MIC [7, 17]: 1 µg/mL (≈ 0.783 µM) | MEC ([7]; Without Tween-80, 48 hr): 1/1 μg/mL and 1 μg/mL | MIC ([7]; Without Tween-80, 48 hr): 2 µg/mL (≈ 1.57 µM)
